The subject of the test is T1, Serratia marcescens glucose isomerase (SmGI).
T1 construct: gene xylA; native, from S. marcescens lysate; 70 °C heat step and 10 kD ultrafiltration only (no chromatography); main SDS-PAGE band about 60 kD
Description: fructose formation by fructose assay kit, Lineweaver-Burk; heat-treated, ultrafiltered extract. In kind it is biochemical. Particulars: free enzyme, no added Co2+; 60 °C, 1 h; glucose 2.5-400 mM; pH of kinetic assay not stated. The text has this: fructose formation by fructose assay kit, Lineweaver-Burk; heat-treated, ultrafiltered extract on Serratia marcescens glucose isomerase (SmGI)

Usually Km stands for the concentration of substrate that gives half-maximal velocity.

`OC[C@H]1OC(O)[C@H](O)[C@@H](O)[C@@H]1O` (stereo partly shown) [glucose]: the Km was found to be 44.3 ± 3.1 mM.

The values above are taken from publication PMC10888103, “Enhanced High-Fructose Corn Syrup Production: Immobilizing Serratia marcescens Glucose Isomerase on MOF (Co)-525 Reduces Co^2+ Dependency in Glucose Isomerization to Fructose” (Foods, 2024).
